Experiments:
Assay in all cases: Protein kinase inhibition assay
Format in all cases: biochemical
CSK(h) = CSK(h) (Homo sapiens, UniProt P41240); settings: read-out: percent residual activity of CSK(h)
Method: (§1) Certain compounds were tested for activity in protein kinase inhibition assays. All substrates were dissolved and diluted to working stocks in de-ionized water, apart from histone H1 (10× working stock in 20 mM MOPS pH 7.0), PDKtide (10× working stock in 50 mM Tris pH 7.0) ATF2 (which is typically stored at a 20× working stock in 50 mM Tris pH 7.5, 150 mM NaCl, 0.1 mM EGTA, 0.03% Brij-35, 50% glycerol, 1 mM benzamidine, 0.2 mM PMSF and 0.1% R-mercaptoethanol), KKLNRTLSFAEPG (SEQ ID NO:203) and RRRLSFAEPG (SEQ ID NO:204) (50 mM HEPES pH 7.4) and GGEEEEYFELVKKKK (SEQ ID NO:205) (20 mM MOPS pH 7.0). All kinases were pre-diluted to a 10× working concentration prior to addition into the assay. The composition of the dilution buffer for each kinase is detailed below.
(§2) In a final reaction volume of 25 μl, CSK (h) (5-10 mU) is incubated with 50 mM Tris pH 7.5, 0.1 mM EGTA, 0.1 mM Na3VO4, 0.1% R-mercaptoethanol, 0.1 mg/ml poly(Glu, Tyr) 4:1, 10 mM MnCl2, 10 mM MgAcetate and [gamma-33P-ATP] (specific activity approx. 500 cpm/pmol, concentration as required). The reaction is initiated by the addition of the MgATP mix. After incubation for 40 minutes at room temperature, the reaction is stopped by the addition of 5 μl of a 3% phosphoric acid solution. […]

DDR2(h) = DDR2(h) (Homo sapiens, UniProt Q16832); settings: read-out: percent residual activity of DDR2(h)
Method: as §1
In a final reaction volume of 25 μl, DDR2 (h) (5-10 mU) is incubated with 8 mM MOPS pH 7.0, 0.2 mM EDTA, 250 μM KKSRGDYMTMQIG (SEQ ID NO:210), 10 mM MnCl2, 10 mM MgAcetate and [y-33P-ATP] (specific activity approx. 500 cpm/pmol, concentration as required). The reaction is initiated by the addition of the MgATP mix. After incubation for 40 minutes at room temperature, the reaction is stopped by the addition of 5 μl of a 3% phosphoric acid solution. […]

IKKα(h) = IKKα(h) (Homo sapiens, UniProt O15111); settings: read-out: percent residual activity of IKKα(h)
Method: as §1
(§3) In a final reaction volume of 25 μl, IKKa (h) (5-10 mU) is incubated with 8 mM MOPS pH 7.0, 0.2 mM EDTA, 200 μM peptide, 10 mM MgAcetate and [gamma-33P-ATP] (specific activity approx. 500 cpm/pmol, concentration as required). The reaction is initiated by the addition of the MgATP mix. After incubation for 40 minutes at room temperature, the reaction is stopped by the addition of 5 μl of a 3% phosphoric acid solution. 10 μl of the reaction is then spotted onto a P30 filtermat and washed three times for 5 minutes in 75 mM phosphoric acid and once in methanol prior to drying and scintillation counting.

IR(h) = IR(h) (Homo sapiens, UniProt P06213); settings: read-out: percent residual activity of IR(h)
Method: as §1
as §2, with “IR” for “CSK”, “250 μM KKSRGDYMTMQIG (SEQ ID NO:210),” for “0.1 mg/ml poly(Glu, Tyr) 4:1,”

MINK(h) = MINK(h) (Homo sapiens, UniProt Q8N4C8); settings: read-out: percent residual activity of MINK(h)
Method: as §1
as §3, with “MINK” for “IKKa”, “0.33 mg/ml myelin basic protein,” for “200 μM peptide,”

MKK6(h) = MKK6(h) (Homo sapiens, UniProt P52564); settings: read-out: percent residual activity of MKK6(h)
Method: as §1
The reaction is initiated by the addition of the MgATP. After incubation for 40 minutes at room temperature, 5 μl of this incubation mix is used to initiate a SAPK2a (h) assay, which is described on page 18 of this book.

PKBα(h) = PKBα(h) (Homo sapiens, UniProt P31749); settings: read-out: percent residual activity of PKBα(h)
Method: as §1
as §3, with “PKBα” for “IKKa”, “30” for “200”, “GRPRTSSFAEGKK (SEQ ID NO:232),” for “peptide,”

Chain of MINK(h) (Q8N4C8 whole entry): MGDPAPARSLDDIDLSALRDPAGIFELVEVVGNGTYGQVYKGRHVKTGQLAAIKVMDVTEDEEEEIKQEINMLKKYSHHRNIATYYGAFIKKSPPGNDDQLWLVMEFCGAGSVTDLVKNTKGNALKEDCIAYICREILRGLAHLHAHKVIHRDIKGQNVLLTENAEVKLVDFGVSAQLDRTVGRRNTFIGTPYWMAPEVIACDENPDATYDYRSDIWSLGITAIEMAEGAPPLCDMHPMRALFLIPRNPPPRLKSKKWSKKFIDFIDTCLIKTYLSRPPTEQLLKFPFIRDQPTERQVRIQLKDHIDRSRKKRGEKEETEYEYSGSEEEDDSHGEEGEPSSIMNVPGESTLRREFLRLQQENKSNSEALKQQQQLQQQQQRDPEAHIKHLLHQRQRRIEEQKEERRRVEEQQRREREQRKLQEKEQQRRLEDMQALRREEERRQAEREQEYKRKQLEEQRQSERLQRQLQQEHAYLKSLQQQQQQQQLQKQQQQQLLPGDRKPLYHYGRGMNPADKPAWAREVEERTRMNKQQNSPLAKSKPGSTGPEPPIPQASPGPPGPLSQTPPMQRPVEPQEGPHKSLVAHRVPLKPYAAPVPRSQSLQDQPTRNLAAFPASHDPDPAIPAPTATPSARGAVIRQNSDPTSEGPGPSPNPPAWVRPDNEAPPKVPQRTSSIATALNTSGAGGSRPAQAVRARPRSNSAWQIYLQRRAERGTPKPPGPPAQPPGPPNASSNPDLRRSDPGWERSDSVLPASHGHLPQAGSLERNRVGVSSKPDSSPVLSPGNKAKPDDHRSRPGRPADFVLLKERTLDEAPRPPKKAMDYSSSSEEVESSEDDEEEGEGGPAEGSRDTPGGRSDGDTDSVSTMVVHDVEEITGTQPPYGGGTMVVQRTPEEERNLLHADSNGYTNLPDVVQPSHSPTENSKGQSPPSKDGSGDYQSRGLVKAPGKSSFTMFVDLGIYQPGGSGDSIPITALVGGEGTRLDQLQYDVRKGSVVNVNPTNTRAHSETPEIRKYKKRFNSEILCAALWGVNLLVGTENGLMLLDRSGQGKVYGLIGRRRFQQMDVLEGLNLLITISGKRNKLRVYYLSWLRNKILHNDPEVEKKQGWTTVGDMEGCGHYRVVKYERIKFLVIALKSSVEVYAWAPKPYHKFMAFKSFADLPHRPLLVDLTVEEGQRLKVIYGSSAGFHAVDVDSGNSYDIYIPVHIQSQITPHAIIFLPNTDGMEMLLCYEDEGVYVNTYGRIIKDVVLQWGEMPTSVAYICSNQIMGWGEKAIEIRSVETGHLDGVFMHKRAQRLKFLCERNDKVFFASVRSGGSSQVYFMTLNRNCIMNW
Chain of MKK6(h) (P52564 whole entry): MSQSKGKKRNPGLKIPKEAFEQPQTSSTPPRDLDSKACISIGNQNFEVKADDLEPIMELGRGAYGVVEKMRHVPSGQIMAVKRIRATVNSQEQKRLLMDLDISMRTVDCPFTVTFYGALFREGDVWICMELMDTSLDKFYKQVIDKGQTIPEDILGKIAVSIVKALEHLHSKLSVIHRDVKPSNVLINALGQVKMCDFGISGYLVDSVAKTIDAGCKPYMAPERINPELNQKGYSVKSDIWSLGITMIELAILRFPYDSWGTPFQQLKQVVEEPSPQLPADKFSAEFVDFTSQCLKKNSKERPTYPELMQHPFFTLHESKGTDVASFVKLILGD
Chain of PKBα(h) (P31749 whole entry): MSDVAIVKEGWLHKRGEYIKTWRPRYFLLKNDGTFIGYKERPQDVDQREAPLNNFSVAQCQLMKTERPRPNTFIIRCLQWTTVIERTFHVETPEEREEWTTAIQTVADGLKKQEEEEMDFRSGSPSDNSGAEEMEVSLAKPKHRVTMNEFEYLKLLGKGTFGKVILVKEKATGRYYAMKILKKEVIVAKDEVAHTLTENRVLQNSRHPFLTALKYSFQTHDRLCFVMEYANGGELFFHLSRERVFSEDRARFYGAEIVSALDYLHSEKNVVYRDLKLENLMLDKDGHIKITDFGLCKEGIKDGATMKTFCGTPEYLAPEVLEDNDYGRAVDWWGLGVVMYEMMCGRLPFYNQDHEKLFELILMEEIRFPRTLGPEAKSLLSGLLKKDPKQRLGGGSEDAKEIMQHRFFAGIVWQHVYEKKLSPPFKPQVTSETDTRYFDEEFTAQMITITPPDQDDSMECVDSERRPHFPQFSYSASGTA
Chain of IKKα(h) (O15111 whole entry): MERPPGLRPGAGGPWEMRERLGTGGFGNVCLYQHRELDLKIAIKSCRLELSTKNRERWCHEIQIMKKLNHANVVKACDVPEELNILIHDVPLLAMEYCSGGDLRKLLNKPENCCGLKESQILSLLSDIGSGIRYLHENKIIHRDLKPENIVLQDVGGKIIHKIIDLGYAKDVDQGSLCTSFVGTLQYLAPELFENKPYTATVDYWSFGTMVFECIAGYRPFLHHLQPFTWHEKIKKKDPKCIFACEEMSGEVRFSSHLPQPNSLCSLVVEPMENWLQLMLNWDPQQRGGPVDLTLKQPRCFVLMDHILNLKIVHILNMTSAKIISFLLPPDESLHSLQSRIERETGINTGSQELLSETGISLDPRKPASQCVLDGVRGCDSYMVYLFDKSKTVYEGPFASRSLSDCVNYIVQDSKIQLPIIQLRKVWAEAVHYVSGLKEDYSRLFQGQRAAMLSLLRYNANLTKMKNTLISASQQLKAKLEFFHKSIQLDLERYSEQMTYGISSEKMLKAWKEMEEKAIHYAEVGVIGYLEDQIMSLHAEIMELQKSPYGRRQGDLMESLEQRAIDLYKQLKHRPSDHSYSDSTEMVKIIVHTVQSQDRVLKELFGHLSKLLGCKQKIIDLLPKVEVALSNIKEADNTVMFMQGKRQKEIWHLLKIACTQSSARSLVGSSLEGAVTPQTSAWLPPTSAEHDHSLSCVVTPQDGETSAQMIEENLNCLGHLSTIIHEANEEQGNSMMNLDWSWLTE
Chain of CSK(h) (P41240 whole entry): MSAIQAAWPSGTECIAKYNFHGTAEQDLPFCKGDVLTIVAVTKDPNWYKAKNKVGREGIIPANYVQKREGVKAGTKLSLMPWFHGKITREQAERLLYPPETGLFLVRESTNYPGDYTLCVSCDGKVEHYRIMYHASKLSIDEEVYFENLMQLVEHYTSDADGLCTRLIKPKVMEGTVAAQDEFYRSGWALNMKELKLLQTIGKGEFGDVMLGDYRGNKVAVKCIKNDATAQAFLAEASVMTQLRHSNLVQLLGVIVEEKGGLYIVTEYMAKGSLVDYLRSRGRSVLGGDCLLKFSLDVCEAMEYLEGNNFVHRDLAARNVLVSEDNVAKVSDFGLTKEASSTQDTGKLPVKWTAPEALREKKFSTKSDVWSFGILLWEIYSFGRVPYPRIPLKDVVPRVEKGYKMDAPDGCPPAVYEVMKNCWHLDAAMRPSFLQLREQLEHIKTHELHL
Chain of IR(h) (P06213 28-1382): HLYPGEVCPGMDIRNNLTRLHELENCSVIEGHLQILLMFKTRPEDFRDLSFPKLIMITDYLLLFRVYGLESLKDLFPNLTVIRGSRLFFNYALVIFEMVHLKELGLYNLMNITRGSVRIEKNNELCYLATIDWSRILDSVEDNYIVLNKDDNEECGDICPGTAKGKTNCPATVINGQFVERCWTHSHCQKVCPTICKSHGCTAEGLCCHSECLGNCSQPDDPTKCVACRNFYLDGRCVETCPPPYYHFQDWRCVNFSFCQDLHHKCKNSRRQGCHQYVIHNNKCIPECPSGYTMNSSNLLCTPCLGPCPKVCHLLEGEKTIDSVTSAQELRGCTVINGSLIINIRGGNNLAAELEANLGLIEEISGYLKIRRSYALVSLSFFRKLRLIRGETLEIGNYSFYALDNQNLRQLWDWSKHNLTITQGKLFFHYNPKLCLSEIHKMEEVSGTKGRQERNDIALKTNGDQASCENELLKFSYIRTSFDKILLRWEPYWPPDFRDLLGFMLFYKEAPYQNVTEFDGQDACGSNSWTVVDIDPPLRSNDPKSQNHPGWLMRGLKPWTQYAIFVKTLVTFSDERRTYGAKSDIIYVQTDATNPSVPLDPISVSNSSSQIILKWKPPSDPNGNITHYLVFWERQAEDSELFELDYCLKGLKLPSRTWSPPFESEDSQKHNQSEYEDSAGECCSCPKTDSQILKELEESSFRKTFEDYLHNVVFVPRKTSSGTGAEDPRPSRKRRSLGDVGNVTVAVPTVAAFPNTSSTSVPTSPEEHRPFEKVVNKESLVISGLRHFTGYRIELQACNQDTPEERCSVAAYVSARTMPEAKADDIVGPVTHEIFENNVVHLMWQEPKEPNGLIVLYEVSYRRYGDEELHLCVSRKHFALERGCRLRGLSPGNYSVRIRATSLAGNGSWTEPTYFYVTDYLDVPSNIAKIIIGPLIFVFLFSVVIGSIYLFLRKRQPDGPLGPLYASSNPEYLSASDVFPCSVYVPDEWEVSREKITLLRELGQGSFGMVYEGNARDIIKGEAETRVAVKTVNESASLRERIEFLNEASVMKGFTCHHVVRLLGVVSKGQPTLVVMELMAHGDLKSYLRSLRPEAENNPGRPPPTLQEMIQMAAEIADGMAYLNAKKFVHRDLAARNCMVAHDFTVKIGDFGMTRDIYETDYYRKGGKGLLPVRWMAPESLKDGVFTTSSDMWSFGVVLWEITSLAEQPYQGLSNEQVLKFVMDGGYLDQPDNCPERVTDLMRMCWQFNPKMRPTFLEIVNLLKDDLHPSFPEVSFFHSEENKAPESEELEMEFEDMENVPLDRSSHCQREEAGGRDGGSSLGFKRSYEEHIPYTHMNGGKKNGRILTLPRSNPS

| Structure (SMILES) | remaining activity at 2.5 µM (CSK(h)) [%] | remaining activity at 2.5 µM (DDR2(h)) [%] | remaining activity at 2.5 µM (IKKα(h)) [%] | remaining activity at 2.5 µM (IR(h)) [%] | remaining activity at 2.5 µM (MINK(h)) [%] | remaining activity at 2.5 µM (MKK6(h)) [%] | remaining activity at 2.5 µM (PKBα(h)) [%] |
| --- | --- | --- | --- | --- | --- | --- | --- |
| CN1CCCC1CCNC(=O)c1cn2c3c(c(N4CCC(c5cnccn5)C4)c(F)cc3c1=O)Oc1cc3ccccc3cc1-2 (centres unmarked) [Compound A-1] | 116 | 77 | 68 | 96 | 72 | 100 | 91 |
| CC(=O)N1CCN(c2ccc3c(=O)c(C(=O)NCCN4CCCC4)c4n(C)c5ccccc5n4c3n2)CC1 [Compound B-1] | 92 | 95 | 118 | 110 | 97 | 90 | 103 |

— patent US20070117770A1, “Human ribosomal DNA (rDNA) and ribosomal RNA (rRNA) nucleic acids and uses thereof” (Cylene Pharmaceuticals, Inc., priority 2005, published 2007)
